Experiments:
Experiment in all cases: relative viability (nuclei count vs DMSO), 5 days (fraction); higher = more cells survive
[1] = compound: C1CNCCC1C2=CC(=NN2)C3=CC=NC=C3 + CC1(C)CCC(c2ccc(Cl)cc2)=C(CN2CCN(c3ccc(C(=O)NS(=O)(=O)c4ccc(N[C@H](CCN5CCOCC5)CSc5ccccc5)c(S(=O)(=O)C(F)(F)F)c4)cc3)CC2)C1 [Navitoclax] (partner 0.5 µM)
Method in brief: (§1)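 Each reported value is a median over duplicate plates. It expresses relative viability: treated-well nuclei count divided by vehicle-well nuclei count. Lung cancer cell lines in 1536-well plates were dosed by pin tool a day after seeding, alone with one drug or with a fixed anchor-drug dose plus five library-drug doses (not always all listed) in √10 steps, and nuclei were counted after 5 days.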

[2] = compound: C[C@@H](N)c1ccc(C(=O)Nc2ccnc3[nH]ccc23)cc1 + COc1cccc2cc(-c3nc([C@H]4CC[C@H](C(=O)O)CC4)n4ncnc(N)c34)[nH]c12 [OSI-027] (partner 0.5 µM)
Method in brief: as §1

Tanzisertib + Trametinib = compound: O[C@H]1CC[C@H](Nc2ncc3nc(Nc4c(F)cc(F)cc4F)n([C@H]4CCOC4)c3n2)CC1 [Tanzisertib] + CC(=O)Nc1cccc(-n2c(=O)n(C3CC3)c(=O)c3c(Nc4ccc(I)cc4F)n(C)c(=O)c(C)c32)c1 [Trametinib] (partner 0.02 µM)
Method in brief: as §1

Tanzisertib + Linsitinib = compound: O[C@H]1CC[C@H](Nc2ncc3nc(Nc4c(F)cc(F)cc4F)n([C@H]4CCOC4)c3n2)CC1 [Tanzisertib] + C[C@]1(O)C[C@@H](c2nc(-c3ccc4ccc(-c5ccccc5)nc4c3)c3c(N)nccn32)C1 [Linsitinib] (partner 1 µM)
Method in brief: as §1

| Cell Line | relative viability ([1]; first compound 0.08 µM) | relative viability ([1]; first compound 0.8 µM) | relative viability ([1]; first compound 2.53 µM) | relative viability ([1]; first compound 8 µM) | relative viability ([2]; first compound 0.04 µM) | relative viability ([2]; first compound 0.1265 µM) | relative viability ([2]; first compound 0.4 µM) | relative viability ([2]; first compound 1.265 µM) | relative viability ([2]; first compound 4 µM) | relative viability (Tanzisertib + Trametinib; first compound 0.08 µM) | relative viability (Tanzisertib + Trametinib; first compound 0.253 µM) | relative viability (Tanzisertib + Trametinib; first compound 0.8 µM) | relative viability (Tanzisertib + Trametinib; first compound 2.53 µM) | relative viability (Tanzisertib + Trametinib; first compound 8 µM) | relative viability (Tanzisertib + Linsitinib; first compound 0.08 µM) | relative viability (Tanzisertib + Linsitinib; first compound 0.253 µM) | relative viability (Tanzisertib + Linsitinib; first compound 0.8 µM) | relative viability (Tanzisertib + Linsitinib; first compound 2.53 µM) | relative viability (Tanzisertib + Linsitinib; first compound 8 µM) |
| --- | --- | --- | --- | --- | --- | --- | --- | --- | --- | --- | --- | --- | --- | --- | --- | --- | --- | --- | --- |
| NCI-H460 | 0.888 | 1.38 | 1.17 | 1.29 | 0.748 | 0.602 | 0.746 | 0.633 | 0.897 | 0.177 | 0.11 | 0.2 | 0.139 | 0.0888 | 0.982 | 0.706 | 0.738 | 0.783 | 0.525 |
| LOU-NH91 | 0.653 | 0.762 | 0.866 | 0.703 | 0.626 | 0.667 | 0.688 | 0.601 | 0.591 | 0.824 | 0.811 | 0.773 | 0.756 | 0.71 | 0.996 | 0.906 | 0.996 | 0.842 | 0.627 |
| NCI-H1651 | 0.897 | 1.07 | 0.963 | 1.16 | 0.901 | 0.817 | 0.888 | 1.05 | 0.802 | 0.851 | 0.83 | 0.775 | 0.832 | 0.85 | 0.956 | 0.837 | 1.05 | 1.05 | 0.854 |
| NCI-H441 |  | 0.915 | 0.836 | 0.704 | 0.631 | 0.807 | 0.62 |  | 0.701 | 0.567 | 0.452 | 0.456 | 0.429 | 0.388 | 0.626 | 0.607 | 0.634 | 0.553 | 0.454 |

From the supplement of paper PMC10307832
